The results in this text go back to patent EP1095021B1, “QUINOLINE DERIVATIVES” (Active Biotech AB, priority 1998, dated 2000).

The subject of data set [1] is acute experimental autoimmune encephalomyelitis (aEAE). The data set can be described thus: Acute experimental autoimmune encephalomyelitis (aEAE) inhibition. The data set is classed as in vivo, SJL/N female mice. The note with it: for % aEAE Inhibition: percent inhibition of clinical scores compared to saline treated controls.
A further data set deals with foetuses. The data set can be described thus: Teratogenic effects in the rat. It counts as in vivo. The note with it: for % malformed fetuses: day 8 to 14 of pregnancy.
In data set [2] the test system is Beagle Pain Syndrome (BPS). The data set can be described thus: Beagle Pain Syndrome (BPS). The data set is classed as in vivo. The note with it: different breeds of beagle dogs. The method, then:
The disease is reflected by clinical and laboratory manifestations justifying BPS as a model for the flu-like syndrome induced by roquinimex in man.
Beagle Pain Syndrome (BPS).
The compounds were administrated intravenously to beagle dogs. The dosage was given for five consecutive days. The dogs were evaluated for clinical and laboratory signs of the pain syndrome, e.g., fever, increased erythrocyte sedimentation rate (ESR), alkaline phosphate (AP), induction of acute phase proteins and vasculitis

In the case of `COc1cccc2c1c(O)c(C(=O)N(C)c1ccc(C(F)(F)F)cc1)c(=O)n2C` [Compound A, N-methyl-N-(4-trifluoromethyl-phenyl)-1,2-dihydro-4-hydroxy-5-methoxy-1-methyl-2-oxo-quinoline-3-carboxamide], the “% aEAE Inhibition” value came to 66% in data set [1] (Dose 0.2 mg/kg p.o.), 86% in data set [1] (Dose 1 mg/kg p.o.) and 99% in data set [1] (Dose 5 mg/kg p.o.). Also, the “% malformed fetuses” value with foetuses (Dose 6 mg/kg p.o.) was determined as 4%; with foetuses (Dose 30 mg/kg p.o.), 2%.

With `CN(C(=O)c1c(O)c2c(Cl)cccc2n(C)c1=O)c1ccc(F)cc1F` [Compound B, N-methyl-N-(2,4-difluorophenyl)-1,2-dihydro-4-hydroxy-5-chloro-1-methyl-2-oxo-quinoline-3-carboxamide], the “% aEAE Inhibition” value in data set [1] (Dose 0.2 mg/kg p.o.) is 59%; in data set [1] (Dose 1 mg/kg p.o.), 96%; in data set [1] (Dose 5 mg/kg p.o.), 100%. Also, the “% malformed fetuses” value in the data set on foetuses (Dose 6 mg/kg p.o.) is reported as 0%.

In the case of `CN(C(=O)c1c(O)c2c(Cl)cccc2n(C)c1=O)c1ccccc1` [Compound C, N-Methyl-N-phenyl-1,2-dihydro-4-hydroxy-5-chloro-1-methyl-2-oxo-quinoline-3-carboxamide], the “% aEAE Inhibition” value in data set [1] (Dose 0.2 mg/kg p.o.) is reported as 92%; in data set [1] (Dose 1 mg/kg p.o.) it was 100%. In addition, the “% malformed fetuses” value with foetuses (Dose 6 mg/kg p.o.) came to 37%.

Turning to `CN(C(=O)c1c(O)c2ccccc2n(C)c1=O)c1ccccc1` [Compound D, N-phenyl-N-methyl-1,2-dihydro-4-hydroxy-1-methyl-2-oxo-quinoline-3-carboxamide], the “% aEAE Inhibition” value in data set [1] (Dose 0.2 mg/kg p.o.) came out at 35%; in data set [1] (Dose 1 mg/kg p.o.), 40%; in data set [1] (Dose 5 mg/kg p.o.) it was 69%. In data set [1] (at ≥5 mg/kg, treatment control), the “inhibition of acute experimental autoimmune encephalomyelitis (aEAE)” value is recorded as “more than 50%”. For the same compound, the “Beagle Pain Syndrome (BPS)” value in data set [2] is reported as “induce the Beagle Pain Syndrome (BPS)”. The “% malformed fetuses” value in the data set with foetuses (Dose 10 mg/kg p.o.) stood at 9%; in the data set with foetuses (Dose 30 mg/kg p.o.), 30%. In the data set on foetuses (rat), the teratogenic effect entry is “teratogenic”.
